Key:
[1] = tested on: immobility of Swiss-Webster CD male mice; assay: Reduction of behavioral despair in vivo (modified Porsolt method); details: mouse, subcutaneous, tested one hour after injection, linear regression analysis of % MPE data
Procedure: Reduction of Behavioral Despair In Vivo (Modified Porsolt Method) by (1-{2-[1-(3,4-Dichloro-phenyl)-ethyl]-phenyl}-ethyl)-methyl-amine hydrochloride.
A modification of the procedure described by Porsolt et al., Arch. Int. Pharmnacodyn., 229, pp. 327-336 (1977) was used. A number of Swiss-Webster CD male mice weighing 25-30 g. were housed under standard laboratory conditions for at least one week prior to experimentation. Groups of 10 mice were then injected subcutaneously with either a given dosage of the named test compound or vehicle (5% Emulphor: 5% ethanol: 90% normal saline). One hour later the mice were placed individually in 1 liter beakers containing 7 cm of 25° C. water. […] A total of ten observations were made, each being scored as “0=animal moving, swimming, attempting to escape” or “1=animal immobile”. The number of positive observations for each mouse was then totaled and a mean immobility score calculated for the group of ten. […] From the % MPE data a % MPE50 value, i.e. the dosage producing a 50% reduction in immobility relative to control, was determined by linear regression analysis to be 5.2 mg/kg body weight for the named test compound. Similarly, the % MPE50 values were determined for other compounds in examples 1-17 and were <8.0 mg/kg.

[2] = tested on: PCA-induced serotonin depletion (5HT uptake into 5HT neurons), rat whole brain; assay: Antagonism of parachloroamphetamine (PCA)-induced depletion of serotonin levels from rat brain in vivo; set-up: species or system Sprague-Dawley CD male rats; details: subcutaneous, together with 6.6 mg/kg PCA, whole brain serotonin four hours later
From the text: Ability of (1-{2-[1-(3,4-Dichloro-phenyl)-ethyl]-phenyl}-ethyl)-methyl-amine Hydrochloride to Antagonize Parachloroamphetamine (PCA)-induced Depletion of Serotonin Levels from Rat Brain In Vivo
Serotonin uptake blockers show a dose-dependent antagonism of the serotonin-depleting action of PCA, a drug which requires 5HT uptake into 5HT neurons to exert its effect. Sprague-Dawley CD male rats (180-230 g.) in groups of five received two simultaneous subcutaneous injections: either the named test compound (at different dosage levels)+6.6 mg/kg body weight PCA, water+6.6 mg/kg body weight PCA, or water+water (controls). The rats were decapitated four hours later and their whole brain assayed for serotonin content by the Bogdanski method. Homogenates of brain in 0.1N HCl were made alkaline with borate buffer and extracted with butanol. The solvent phase was then extracted with 0.1N HCl. The aqueous extracts were acidified with concentrated HCl and the intrinsic fluorescence of serotonin measured in a spectrophotofluorometer. The ED50, i.e., the dose giving a 50% reversal of the PCA-induced serotonin depletion, was estimated to be 0.1 mg/kg body weight. Similarly, the ED50 for other compounds in Examples 1-17 were determined and were <0.3 mg/kg.

CNC(C)c1ccccc1C(C)c1ccc(Cl)c(Cl)c1.Cl (centres unmarked) [(1-{2-[1-(3,4-Dichloro-phenyl)-ethyl]-phenyl}-ethyl)-methyl-amine Hydrochloride]
% MPE50, the dosage producing a 50% reduction in immobility relative to control [1]: 5.2 mg/kg body weight | ED50, the dose giving a 50% reversal of the PCA-induced serotonin depletion [2]: 0.1 mg/kg body weight

Source: patent US6759435B1, “Antidepressant drugs and methods” (A.P. Group Inc., priority 2003, dated 2004)
